# According to publication PMC7285812 (Drug Design, Development and Therapy, 2020):
# Where “and” joins values, the source holds several entries; their conditions need not be identical. Equal values may be shown once. Where a name gives a salt, the structure may show the parent alone.
# Assays:
# [1] = target: α-glucosidase from Saccharomyces cerevisiae (Saccharomyces cerevisiae, UniProt P53341); test: α-Glucosidase inhibition, chromogenic assay; assay type: biochemical; details: for inhibition at 15.62 µg/mL / inhibition at 31.25 µg/mL / inhibition at 62.5 µg/mL / inhibition at 125 µg/mL / inhibition at 250 µg/mL / inhibition at 500 µg/mL / inhibition at 1000 µg/mL: read-out: (%) Inhibition α-glucosidase
# α-glucosidase from Saccharomyces cerevisiae, sequence (P53341 whole entry): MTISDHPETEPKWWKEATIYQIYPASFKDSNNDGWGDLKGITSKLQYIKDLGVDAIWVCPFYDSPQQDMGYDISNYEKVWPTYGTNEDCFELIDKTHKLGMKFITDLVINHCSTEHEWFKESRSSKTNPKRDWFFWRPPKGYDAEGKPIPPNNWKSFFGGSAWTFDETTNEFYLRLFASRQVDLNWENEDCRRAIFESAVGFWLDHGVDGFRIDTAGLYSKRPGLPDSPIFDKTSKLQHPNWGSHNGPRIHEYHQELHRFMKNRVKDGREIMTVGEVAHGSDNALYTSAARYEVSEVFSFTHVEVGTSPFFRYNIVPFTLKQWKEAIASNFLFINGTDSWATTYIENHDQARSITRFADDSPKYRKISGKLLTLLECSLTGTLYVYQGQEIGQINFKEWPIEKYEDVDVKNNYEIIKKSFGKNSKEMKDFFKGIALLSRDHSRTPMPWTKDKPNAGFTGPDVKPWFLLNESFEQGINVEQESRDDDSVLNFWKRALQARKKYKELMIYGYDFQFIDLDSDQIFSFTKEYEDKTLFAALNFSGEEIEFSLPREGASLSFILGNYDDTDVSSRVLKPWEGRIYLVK
# α-glucosidase = α-glucosidase (Saccharomyces cerevisiae, UniProt P53341); test: Michaelis–Menten kinetics of α-glucosidase inhibition; assay type: biochemical; details: Michaelis–Menten / Lineweaver–Burk
# α-glucosidase, sequence (P53341 whole entry): as above
# [2] = DPPH radicals scavenging assay; details: for IC50: read-out: IC50 DPPH free radicals scavenging
# [3] = ABTS free radicals scavenging assay; details: for IC50: read-out: IC50 ABTS free radicals scavenging
# AChE electric eel = AChE electric eel (Electrophorus electricus, UniProt O42275); test: biochemical; details: for inhibition at 15.62 µg/mL / inhibition at 31.25 µg/mL / inhibition at 62.5 µg/mL / inhibition at 125 µg/mL / inhibition at 250 µg/mL / inhibition at 500 µg/mL / inhibition at 1000 µg/mL: read-out: (%) Inhibition AChE
# AChE electric eel, sequence (O42275 24-633): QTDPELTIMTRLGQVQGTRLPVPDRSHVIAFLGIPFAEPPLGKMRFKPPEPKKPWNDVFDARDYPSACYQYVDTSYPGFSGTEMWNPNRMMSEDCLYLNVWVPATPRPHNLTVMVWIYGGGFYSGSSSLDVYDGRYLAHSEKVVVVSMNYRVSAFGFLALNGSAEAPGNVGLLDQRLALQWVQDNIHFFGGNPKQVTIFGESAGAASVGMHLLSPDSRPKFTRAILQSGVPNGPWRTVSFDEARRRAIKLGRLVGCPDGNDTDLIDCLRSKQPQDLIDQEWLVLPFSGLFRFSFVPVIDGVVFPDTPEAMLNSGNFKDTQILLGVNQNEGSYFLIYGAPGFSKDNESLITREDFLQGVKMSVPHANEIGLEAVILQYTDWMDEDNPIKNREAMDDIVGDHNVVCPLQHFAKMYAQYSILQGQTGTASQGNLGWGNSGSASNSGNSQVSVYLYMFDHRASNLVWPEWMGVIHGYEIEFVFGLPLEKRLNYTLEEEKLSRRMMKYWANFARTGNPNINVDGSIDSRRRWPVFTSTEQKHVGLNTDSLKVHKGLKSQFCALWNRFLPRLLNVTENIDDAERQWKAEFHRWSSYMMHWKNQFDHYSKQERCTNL
# [4] = target: BChE (lyophilized equine serum) (Equus caballus, UniProt P81908); test: Butyrylcholinesterase inhibition, Ellman's assay; assay type: biochemical; details: for inhibition at 15.62 µg/mL / inhibition at 31.25 µg/mL / inhibition at 62.5 µg/mL / inhibition at 125 µg/mL / inhibition at 250 µg/mL / inhibition at 500 µg/mL / inhibition at 1000 µg/mL: read-out: (%) Inhibition BChE
# BChE (lyophilized equine serum), sequence (P81908 whole entry): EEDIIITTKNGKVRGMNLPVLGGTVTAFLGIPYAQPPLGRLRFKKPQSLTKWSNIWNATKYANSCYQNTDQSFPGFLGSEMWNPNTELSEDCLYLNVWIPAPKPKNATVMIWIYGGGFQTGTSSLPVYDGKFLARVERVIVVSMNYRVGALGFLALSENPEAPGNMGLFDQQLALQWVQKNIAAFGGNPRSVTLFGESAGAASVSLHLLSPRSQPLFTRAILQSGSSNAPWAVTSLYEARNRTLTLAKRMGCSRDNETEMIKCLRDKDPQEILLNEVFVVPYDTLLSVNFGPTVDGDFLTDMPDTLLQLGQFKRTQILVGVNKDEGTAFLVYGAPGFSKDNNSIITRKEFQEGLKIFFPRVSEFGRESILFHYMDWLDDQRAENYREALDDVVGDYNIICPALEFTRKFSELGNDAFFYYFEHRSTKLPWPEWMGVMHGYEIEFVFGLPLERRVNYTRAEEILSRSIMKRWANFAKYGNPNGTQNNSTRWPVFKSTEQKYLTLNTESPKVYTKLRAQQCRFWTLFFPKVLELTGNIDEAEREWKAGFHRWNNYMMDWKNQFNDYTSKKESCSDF
# acetylcholinesterase = acetylcholinesterase (Electrophorus electricus, UniProt O42275); test: Michaelis–Menten kinetics of acetylcholinesterase inhibition; assay type: biochemical, electric eel; details: Michaelis–Menten / Lineweaver–Burk
# acetylcholinesterase, sequence (O42275 24-633): as the sequence (O42275 24-633) above
# butyrylcholinesterase = butyrylcholinesterase (Equus caballus, UniProt P81908); test: Michaelis–Menten kinetics of butyrylcholinesterase inhibition; assay type: biochemical, equine; details: Michaelis–Menten / Lineweaver–Burk
# butyrylcholinesterase, sequence (P81908 whole entry): as the sequence (P81908 whole entry) above
# [5] = Hydrogen peroxide free radicals scavenging assay; details: read-out: IC50 H2O2 free radicals scavenging
smiles,measurement,setting,value
"C[C@H]1O[C@H](O[C@H]2[C@H](O)[C@@H](O)[C@@H](O[C@H]3[C@H](O)[C@@H](O)C(O)O[C@@H]3CO)O[C@@H]2CO)[C@H](O)[C@@H](O)[C@@H]1N[C@H]1C=C(CO)[C@@H](O)[C@H](O)[C@H]1O (some centres unmarked) [Acarbose (Std), acarbose, reference compound]",inhibition at 15.62 µg/mL,[1],41.8 ± 0.37%
same,inhibition at 31.25 µg/mL,[1],49.9 ± 0.48%
same,inhibition at 62.5 µg/mL,[1],57.7 ± 0.88%
same,inhibition at 125 µg/mL,[1],63.9 ± 1.27%
same,inhibition at 250 µg/mL,[1],72 ± 2.01%
same,inhibition at 500 µg/mL,[1],75.1 ± 1.04%
same,inhibition at 1000 µg/mL,[1],83.6 ± 1.67%
same,"Vmax, α-glucosidase",α-glucosidase,2.639 µg/min and 2.616 µg/min
"O=C1O[C@H]([C@@H](O)CO)C(O)=C1O [Ascorbic acid (Std.), ascorbic acid, reference compound]",(%) Inhibition DPPH,[2]; 15.62 μg/mL,48.70 ± 0.90%
same,(%) Inhibition DPPH,[2]; 31.25 μg/mL,55.23 ± 1.21%
same,(%) Inhibition DPPH,[2]; 62.5 μg/mL,61.40 ± 1.85%
same,(%) Inhibition DPPH,[2]; 125 μg/mL,69.66 ± 1.36%
same,(%) Inhibition DPPH,[2]; 250 μg/mL,77.00 ± 1.73%
same,(%) Inhibition DPPH,[2]; 500 μg/mL,83.96 ± 1.91%
same,(%) Inhibition DPPH,[2]; 1000 μg/mL,89.00 ± 0.57%
same,IC50,[2],96.5 µM
same,(%) Inhibition ABTS,[3]; 15.62 μg/mL,46.00±0.58%
same,(%) Inhibition ABTS,[3]; 31.25 μg/mL,52.67±0.89%
same,(%) Inhibition ABTS,[3]; 62.5 μg/mL,58.00±1.15%
same,(%) Inhibition ABTS,[3]; 125 μg/mL,67.00±0.00%
same,(%) Inhibition ABTS,[3]; 250 μg/mL,75.03±0.23%
same,(%) Inhibition ABTS,[3]; 500 μg/mL,81.70±1.60%
same,(%) Inhibition ABTS,[3]; 1000 μg/mL,87.73±0.78%
same,IC50,[3],85.2 µM
"C[C@](C=O)(c1ccccc1)[C@@H]1CC(=O)N(c2ccccc2)C1=O [Compound 2, (R)-2-((S)-2,5-dioxo-1-phenylpyrrolidin-3-yl)-2-phenylpropanal]",IC50,AChE electric eel,423 µM
same,inhibition at 15.62 µg/mL,AChE electric eel,21.3 ± 0.87%
same,inhibition at 31.25 µg/mL,AChE electric eel,27.2 ± 0.47%
same,inhibition at 62.5 µg/mL,AChE electric eel,39.1 ± 0.54%
same,inhibition at 125 µg/mL,AChE electric eel,48 ± 0.3%
same,inhibition at 250 µg/mL,AChE electric eel,59.9 ± 0.6%
same,inhibition at 500 µg/mL,AChE electric eel,70.5 ± 0.9%
same,inhibition at 1000 µg/mL,AChE electric eel,77.23 ± 0.22%
same,IC50,[4],358 µM
same,inhibition at 15.62 µg/mL,[4],23.4 ± 0.82%
same,inhibition at 31.25 µg/mL,[4],31.2 ± 0.47%
same,inhibition at 62.5 µg/mL,[4],42 ± 0.97%
same,inhibition at 125 µg/mL,[4],51.9 ± 0.45%
same,inhibition at 250 µg/mL,[4],62.12 ± 0.54%
same,inhibition at 500 µg/mL,[4],72.54 ± 0.6%
same,inhibition at 1000 µg/mL,[4],79 ± 1.03%
same,(%) Inhibition DPPH,[2]; 15.62 μg/mL,13.70±1.60 %
same,(%) Inhibition DPPH,[2]; 31.25 μg/mL,23.55 ± 1.85 %
same,(%) Inhibition DPPH,[2]; 62.5 μg/mL,36.36 ± 0.91 %
same,(%) Inhibition DPPH,[2]; 125 μg/mL,50.07 ± 0.97 %
same,(%) Inhibition DPPH,[2]; 250 μg/mL,61.31 ± 1.97 %
same,(%) Inhibition DPPH,[2]; 500 μg/mL,70.34 ±1.10 %
same,(%) Inhibition DPPH,[2]; 1000 μg/mL,77.04 ± 1.61 %
same,IC50,[2],407 µM
same,(%) Inhibition ABTS,[3]; 15.62 μg/mL,12.33±1.67 %
same,(%) Inhibition ABTS,[3]; 31.25 μg/mL,22.83±1.21 %
same,(%) Inhibition ABTS,[3]; 62.5 μg/mL,38.10±0.90 %
same,(%) Inhibition ABTS,[3]; 125 μg/mL,49.31±0.58 %
same,(%) Inhibition ABTS,[3]; 250 μg/mL,59.87±0.85 %
same,(%) Inhibition ABTS,[3]; 500 μg/mL,68.51±0.54 %
same,(%) Inhibition ABTS,[3]; 1000 μg/mL,75.76±0.61 %
same,IC50,[3],498 µM
same,IC50,[1],472 µM
same,inhibition at 15.62 µg/mL,[1],28.8 ± 1.5%
same,inhibition at 31.25 µg/mL,[1],34 ± 0.35%
same,inhibition at 62.5 µg/mL,[1],41.9 ± 0.96%
same,inhibition at 125 µg/mL,[1],47.8 ± 1.5%
same,inhibition at 250 µg/mL,[1],55.8 ± 0.71%
same,inhibition at 500 µg/mL,[1],65.08 ± 0.47%
same,inhibition at 1000 µg/mL,[1],71.8 ± 1.24%
same,"Vmax, acetylcholinesterase inhibition",acetylcholinesterase,78.65 µg/min
same,"Vmax, butyrylcholinesterase inhibition",butyrylcholinesterase,2.867 µg/min
same,"Vmax, α-glucosidase",α-glucosidase,3.542 µg/min
"O=CC1([C@@H]2CC(=O)N(c3ccccc3)C2=O)CCCCC1 [Compound 1, (S)-1-(2,5-dioxo-1-phenylpyrrolidin-3-yl) cyclohexanecarbaldehyde]",IC50,AChE electric eel,343 µM
same,inhibition at 15.62 µg/mL,AChE electric eel,12.8 ± 1.5%
same,inhibition at 31.25 µg/mL,AChE electric eel,23.9 ± 0.88%
same,inhibition at 62.5 µg/mL,AChE electric eel,41.1 ± 0.47%
same,inhibition at 125 µg/mL,AChE electric eel,57.03 ± 0.35%
same,inhibition at 250 µg/mL,AChE electric eel,68.6 ± 1.06%
same,inhibition at 500 µg/mL,AChE electric eel,72.76 ± 0.71%
same,inhibition at 1000 µg/mL,AChE electric eel,78.42 ± 0.43%
same,IC50,[4],277 µM
same,inhibition at 15.62 µg/mL,[4],15.4 ± 0.9%
same,inhibition at 31.25 µg/mL,[4],26.1 ± 1.04%
same,inhibition at 62.5 µg/mL,[4],44.6 ± 0.63%
same,inhibition at 125 µg/mL,[4],59.8 ± 1.21%
same,inhibition at 250 µg/mL,[4],69.7 ± 0.91%
same,inhibition at 500 µg/mL,[4],75.76 ± 0.61%
same,inhibition at 1000 µg/mL,[4],81.49 ± 0.6%
same,(%) Inhibition DPPH,[2]; 15.62 μg/mL,28.23 ± 1.71 %
same,(%) Inhibition DPPH,[2]; 31.25 μg/mL,34.05 ± 1.40 %
same,(%) Inhibition DPPH,[2]; 62.5 μg/mL,44.66 ± 0.88 %
same,(%) Inhibition DPPH,[2]; 125 μg/mL,58.50 ± 1.61 %
same,(%) Inhibition DPPH,[2]; 250 μg/mL,68.40 ± 1.97 %
same,(%) Inhibition DPPH,[2]; 500 μg/mL,72.83 ± 1.89 %
same,(%) Inhibition DPPH,[2]; 1000 μg/mL,79.53 ± 1.92 %
same,IC50,[2],298 µM
same,(%) Inhibition ABTS,[3]; 15.62 μg/mL,16.60±1.63 %
same,(%) Inhibition ABTS,[3]; 31.25 μg/mL,26.87±0.85 %
same,(%) Inhibition ABTS,[3]; 62.5 μg/mL,40.51±0.54 %
same,(%) Inhibition ABTS,[3]; 125 μg/mL,54.49±0.60 %
same,(%) Inhibition ABTS,[3]; 250 μg/mL,61.22±1.28 %
same,(%) Inhibition ABTS,[3]; 500 μg/mL,67.31±0.58 %
same,(%) Inhibition ABTS,[3]; 1000 μg/mL,79.87±1.27 %
same,IC50,[3],333 µM
same,IC50,[5],826 µM
same,IC50,[1],158 µM
same,inhibition at 15.62 µg/mL,[1],28 ± 0.35%
same,inhibition at 31.25 µg/mL,[1],34.4 ± 0.43%
same,inhibition at 62.5 µg/mL,[1],44.9 ± 1.55%
same,inhibition at 125 µg/mL,[1],58.8 ± 0.71%
same,inhibition at 250 µg/mL,[1],68.8 ± 1.24%
same,inhibition at 500 µg/mL,[1],72.9 ± 0.96%
same,inhibition at 1000 µg/mL,[1],79.6 ± 1.12%
same,"Vmax, acetylcholinesterase inhibition",acetylcholinesterase,84.93 µg/min
same,"Vmax, butyrylcholinesterase inhibition",butyrylcholinesterase,1.553 µg/min
same,"Vmax, α-glucosidase",α-glucosidase,2.360 µg/min
"COc1ccc2c3c1O[C@H]1C[C@@H](O)C=C[C@@]31CCN(C)C2 [Galanthamine (Std.), galanthamine hydrobromide, reference compound]",inhibition at 15.62 µg/mL,[4],49.7 ± 0.68%
same,inhibition at 31.25 µg/mL,[4],59.33 ± 0.49%
same,inhibition at 62.5 µg/mL,[4],69.03 ± 0.23%
same,inhibition at 125 µg/mL,[4],73.23 ± 0.4%
same,inhibition at 250 µg/mL,[4],80.74 ± 0.68%
same,inhibition at 500 µg/mL,[4],86.9 ± 0.48%
same,inhibition at 1000 µg/mL,[4],93.9 ± 0.96%
same,"Vmax, butyrylcholinesterase inhibition",butyrylcholinesterase; listed as galantamine,2.566 µg/min and 2.641 µg/min
